# Article PMC4329833 (Journal of Medicinal Chemistry, 2014)
# Key:
# [1] = molecular target: T1, rat nNOS (Rattus norvegicus, UniProt P29476); experiment: biochemical
# [2] = molecular target: T1, rat nNOS; details: ratio of respective Ki values (eNOS vs rnNOS)
# [3] = molecular target: CYP2D6 (Homo sapiens, UniProt P10635); experiment: CYP inhibition assay in human liver microsomes; type: in vitro ADME; details: 10 μM
# [4] = molecular target: dopamine D3 receptor (Homo sapiens, UniProt P35462); experiment: NIMH PDSP CNS receptor radioligand binding
# [5] = molecular target: serotonin 5-HT2A (Homo sapiens, UniProt P28223); experiment: NIMH PDSP CNS receptor radioligand binding
# [6] = molecular target: CYP3A4 (Homo sapiens, UniProt P08684); experiment: CYP inhibition assay in human liver microsomes; type: in vitro ADME; details: 10 μM
# [7] = molecular target: CYP2C19 (Homo sapiens, UniProt P33261); experiment: CYP inhibition assay in human liver microsomes; type: in vitro ADME; details: 10 μM
# [8] = molecular target: T2, serotonin 5-HT1A (Homo sapiens, UniProt P08908); experiment: NIMH PDSP CNS receptor radioligand binding
# T2 sequence (P08908 1-422): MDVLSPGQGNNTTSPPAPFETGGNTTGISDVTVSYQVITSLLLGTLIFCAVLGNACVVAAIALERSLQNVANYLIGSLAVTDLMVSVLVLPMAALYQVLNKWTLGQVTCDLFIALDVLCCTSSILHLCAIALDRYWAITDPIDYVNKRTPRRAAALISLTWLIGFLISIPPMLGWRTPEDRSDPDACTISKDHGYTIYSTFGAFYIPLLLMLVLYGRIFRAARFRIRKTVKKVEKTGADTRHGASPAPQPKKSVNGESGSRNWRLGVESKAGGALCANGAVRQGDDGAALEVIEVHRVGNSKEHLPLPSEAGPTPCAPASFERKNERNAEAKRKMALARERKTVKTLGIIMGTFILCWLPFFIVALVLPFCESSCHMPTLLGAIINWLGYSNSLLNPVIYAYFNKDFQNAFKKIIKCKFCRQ
# [9] = cited from earlier work
# T1 sequence (P29476 whole entry): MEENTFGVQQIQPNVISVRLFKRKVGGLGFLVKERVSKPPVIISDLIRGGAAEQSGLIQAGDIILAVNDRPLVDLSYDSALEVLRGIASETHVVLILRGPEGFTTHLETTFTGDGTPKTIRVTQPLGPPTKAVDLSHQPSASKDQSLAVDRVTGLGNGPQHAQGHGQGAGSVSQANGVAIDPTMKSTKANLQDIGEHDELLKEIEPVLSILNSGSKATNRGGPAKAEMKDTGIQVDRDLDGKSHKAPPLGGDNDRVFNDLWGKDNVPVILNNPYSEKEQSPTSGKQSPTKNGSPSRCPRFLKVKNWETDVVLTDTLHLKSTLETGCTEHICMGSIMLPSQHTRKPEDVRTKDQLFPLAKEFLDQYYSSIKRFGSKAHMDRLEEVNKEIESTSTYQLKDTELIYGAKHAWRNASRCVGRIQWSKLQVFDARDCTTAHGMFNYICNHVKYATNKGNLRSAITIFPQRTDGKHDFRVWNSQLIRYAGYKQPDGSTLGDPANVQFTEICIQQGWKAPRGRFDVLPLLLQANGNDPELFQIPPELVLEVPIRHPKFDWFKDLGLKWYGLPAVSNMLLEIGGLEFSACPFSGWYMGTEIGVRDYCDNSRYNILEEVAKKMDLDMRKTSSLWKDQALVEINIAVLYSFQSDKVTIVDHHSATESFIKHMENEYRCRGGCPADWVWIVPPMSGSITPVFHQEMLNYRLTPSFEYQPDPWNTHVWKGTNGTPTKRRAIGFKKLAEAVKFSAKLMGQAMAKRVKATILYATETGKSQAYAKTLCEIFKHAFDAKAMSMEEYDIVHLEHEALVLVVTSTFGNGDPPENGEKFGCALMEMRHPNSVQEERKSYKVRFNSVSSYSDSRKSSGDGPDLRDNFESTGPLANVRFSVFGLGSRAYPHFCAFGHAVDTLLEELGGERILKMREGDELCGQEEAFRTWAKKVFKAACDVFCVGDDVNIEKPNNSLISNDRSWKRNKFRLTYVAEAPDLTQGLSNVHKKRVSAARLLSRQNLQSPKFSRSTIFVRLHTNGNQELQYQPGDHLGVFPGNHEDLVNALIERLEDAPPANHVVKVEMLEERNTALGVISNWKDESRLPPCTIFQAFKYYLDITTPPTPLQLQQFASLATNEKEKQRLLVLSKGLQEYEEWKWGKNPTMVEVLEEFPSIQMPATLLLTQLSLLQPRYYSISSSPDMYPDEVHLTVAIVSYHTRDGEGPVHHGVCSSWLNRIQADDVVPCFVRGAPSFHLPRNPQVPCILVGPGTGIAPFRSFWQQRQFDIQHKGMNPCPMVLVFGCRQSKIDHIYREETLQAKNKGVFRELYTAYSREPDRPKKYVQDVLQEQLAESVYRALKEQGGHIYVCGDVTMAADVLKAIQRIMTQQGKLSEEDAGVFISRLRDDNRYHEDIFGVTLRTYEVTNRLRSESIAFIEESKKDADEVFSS
# Chain of serotonin 5-HT2A (P28223 whole entry): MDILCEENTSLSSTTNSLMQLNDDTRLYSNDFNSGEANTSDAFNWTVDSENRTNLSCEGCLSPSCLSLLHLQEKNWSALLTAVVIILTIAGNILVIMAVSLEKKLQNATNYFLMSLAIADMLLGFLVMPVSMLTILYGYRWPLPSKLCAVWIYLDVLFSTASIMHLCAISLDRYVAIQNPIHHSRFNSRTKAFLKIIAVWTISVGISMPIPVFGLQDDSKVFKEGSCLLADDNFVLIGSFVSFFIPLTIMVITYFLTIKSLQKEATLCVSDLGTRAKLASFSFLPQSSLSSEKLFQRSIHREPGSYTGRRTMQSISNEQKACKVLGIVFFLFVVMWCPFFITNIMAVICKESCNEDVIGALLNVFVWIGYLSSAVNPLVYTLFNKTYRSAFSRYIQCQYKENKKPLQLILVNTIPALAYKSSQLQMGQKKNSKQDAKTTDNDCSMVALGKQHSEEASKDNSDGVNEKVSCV
# Chain of CYP2D6 (P10635 whole entry): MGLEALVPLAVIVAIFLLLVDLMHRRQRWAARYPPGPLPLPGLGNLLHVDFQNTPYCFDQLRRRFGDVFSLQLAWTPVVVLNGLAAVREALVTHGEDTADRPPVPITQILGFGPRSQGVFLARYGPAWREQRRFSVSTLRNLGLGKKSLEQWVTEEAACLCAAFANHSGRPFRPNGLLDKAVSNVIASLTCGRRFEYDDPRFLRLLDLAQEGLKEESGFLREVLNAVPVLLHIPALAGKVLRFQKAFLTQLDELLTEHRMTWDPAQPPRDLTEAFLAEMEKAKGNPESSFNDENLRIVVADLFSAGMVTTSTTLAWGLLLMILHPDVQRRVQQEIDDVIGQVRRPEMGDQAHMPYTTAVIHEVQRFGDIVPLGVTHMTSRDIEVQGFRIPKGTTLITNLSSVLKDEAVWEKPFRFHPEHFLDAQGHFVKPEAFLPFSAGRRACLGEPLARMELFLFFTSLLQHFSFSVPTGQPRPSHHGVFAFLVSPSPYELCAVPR
# Chain of CYP3A4 (P08684 whole entry): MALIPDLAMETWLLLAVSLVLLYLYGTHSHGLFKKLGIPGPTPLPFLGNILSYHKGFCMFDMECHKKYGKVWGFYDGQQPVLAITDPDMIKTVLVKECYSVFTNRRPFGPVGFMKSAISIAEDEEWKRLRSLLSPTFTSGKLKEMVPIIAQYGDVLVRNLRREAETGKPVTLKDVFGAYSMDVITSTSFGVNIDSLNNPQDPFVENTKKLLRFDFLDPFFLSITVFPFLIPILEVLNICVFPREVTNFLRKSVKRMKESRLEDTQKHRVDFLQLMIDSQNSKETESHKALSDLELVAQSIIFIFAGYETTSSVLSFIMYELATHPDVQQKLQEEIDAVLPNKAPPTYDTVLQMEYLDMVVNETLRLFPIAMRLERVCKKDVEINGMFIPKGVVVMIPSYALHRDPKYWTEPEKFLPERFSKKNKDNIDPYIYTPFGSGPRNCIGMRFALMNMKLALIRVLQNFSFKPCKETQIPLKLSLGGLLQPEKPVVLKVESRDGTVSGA
# Chain of CYP2C19 (P33261 whole entry): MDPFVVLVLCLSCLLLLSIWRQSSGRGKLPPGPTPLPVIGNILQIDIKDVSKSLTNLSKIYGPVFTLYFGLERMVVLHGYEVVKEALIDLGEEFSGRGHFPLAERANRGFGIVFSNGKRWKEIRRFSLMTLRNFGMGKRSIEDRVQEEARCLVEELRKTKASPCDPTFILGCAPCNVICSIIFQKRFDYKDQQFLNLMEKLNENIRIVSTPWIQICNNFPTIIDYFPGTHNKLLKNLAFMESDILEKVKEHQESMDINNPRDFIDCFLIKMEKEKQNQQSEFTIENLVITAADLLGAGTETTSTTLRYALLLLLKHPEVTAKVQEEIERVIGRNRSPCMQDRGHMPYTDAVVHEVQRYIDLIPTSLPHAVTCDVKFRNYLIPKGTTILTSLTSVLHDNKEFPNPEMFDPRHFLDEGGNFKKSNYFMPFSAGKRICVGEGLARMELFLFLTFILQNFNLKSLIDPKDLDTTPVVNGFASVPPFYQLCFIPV
# Chain of dopamine D3 receptor (P35462 whole entry, species assumed): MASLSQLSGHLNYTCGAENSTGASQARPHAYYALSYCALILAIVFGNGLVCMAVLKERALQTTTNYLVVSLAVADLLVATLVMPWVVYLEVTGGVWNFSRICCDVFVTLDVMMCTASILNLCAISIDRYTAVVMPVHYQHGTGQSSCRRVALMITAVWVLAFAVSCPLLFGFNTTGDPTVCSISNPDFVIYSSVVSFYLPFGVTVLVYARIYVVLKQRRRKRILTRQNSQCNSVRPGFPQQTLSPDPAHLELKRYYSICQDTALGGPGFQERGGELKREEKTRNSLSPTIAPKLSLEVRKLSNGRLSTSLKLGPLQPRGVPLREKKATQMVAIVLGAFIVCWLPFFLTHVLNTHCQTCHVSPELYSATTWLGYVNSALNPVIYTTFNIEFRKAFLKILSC
smiles,measurement,setting,value
"Fc1cccc(CCN2CCN(c3ccnc(-n4ccnc4)n3)CC2)c1 [Compound 4, 4-[4-(3-Fluorophenethyl)-1-piperazyl]-2-(1H-imidazol-1-yl)pyrimidine]",Ki,[1],~5000 nM
"Cl.Fc1cccc(CCNCCNc2ccnc(-n3ccnc3)n2)c1 [Compound 5, N^1-[2-(1H-Imidazol-1-yl)pyrimidin-4-yl]-N^2-(3-fluorophenethyl)ethane-1,2-diamine Trihydrochloride]",selectivity n/e,[2],100
"Cl.Fc1cccc(CCCNCCc2ccnc(-n3ccnc3)n2)c1 [Compound 9, N-2-[2-(1H-Imidazol-1-yl)pyrimidin-4-yl]ethyl-3-(3-fluorophenyl)propan-1-amine Dihydrochloride]",decrease of CYP2D6 activity,[3],more than 70%
same,Ki,[4],≥ 500 nM
same,Ki,[5],≥ 500 nM
same,decrease of CYP3A4 activity,[6],more than 70%
same,decrease of CYP2C19 activity,[7],more than 70%
same,Ki,[8],≥ 500 nM
c1c[nH]cn1 [imidazole],pKa of conjugate acid,[9],6.9
